The experiment deals with T1, Galanin receptor type 1 (Homo sapiens, UniProt P47211).
T1 sequence (P47211 whole entry): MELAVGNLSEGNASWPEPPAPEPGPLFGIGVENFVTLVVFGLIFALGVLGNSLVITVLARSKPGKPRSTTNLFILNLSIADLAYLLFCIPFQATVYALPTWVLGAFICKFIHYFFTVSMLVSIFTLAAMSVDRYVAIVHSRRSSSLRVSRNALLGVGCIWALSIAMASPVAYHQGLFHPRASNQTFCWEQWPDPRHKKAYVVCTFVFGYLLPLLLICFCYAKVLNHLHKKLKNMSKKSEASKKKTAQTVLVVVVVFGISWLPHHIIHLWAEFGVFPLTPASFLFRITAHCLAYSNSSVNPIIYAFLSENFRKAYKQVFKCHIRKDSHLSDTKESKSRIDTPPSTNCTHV

Molecules are shown by their SMILES. Square brackets hold non-standard residues; d marks the D form. Peptide text beside a SMILES is read from it.

The term Ki denotes the dissociation constant of the complex between target and ligand, obtained from inhibition or displacement. As for `CC(C)C[C@H](NC(=O)[C@H](CC(C)C)NC(=O)[C@@H](Cc1c[nH]c2ccccc12)NC(=O)[C@H](Cc1ccccc1)NC(=O)[C@@H](Cc1c[nH]c2ccccc12)NC(=O)[C@H](CCC(N)=O)NC(=O)[C@H](CCC(N)=O)NC(=O)[C@@H]1CCCN1C(=O)[C@H](CCCCN)NC(=O)[C@@H]1CCCN1C(=O)[C@@H](CCCNC(=N)N)NC(=O)[C@@H]1CCCN1C(=O)CNC(=O)[C@H](CC(C)C)NC(=O)[C@H](CC(C)C)NC(=O)[C@H](Cc1ccc(O)cc1)NC(=O)CNC(=O)[C@H](C)NC(=O)[C@H](CO)NC(=O)[C@H](CC(N)=O)NC(=O)[C@H](CC(C)C)NC(=O)[C@@H](NC(=O)[C@H](Cc1c[nH]c2ccccc12)NC(=O)CN)[C@@H](C)O)C(N)=O` [Gal(1-13)-Std I] (H-GWTLNSAGYLLGP[dR]PKPQQ[dW]F[dW]LL-NH2), the Ki stood at 685 nM. This lies in the sub-micromolar range.
